Assay results taken from ChEMBL document CHEMBL1201862, “PubChem BioAssay data set” (2004).
The source made the active and inactive calls.

Tests used:
[1] = NIH-3T3 fibroblast cytotoxicity, dose response, cytotoxicity control, cell-based, fluorescence, Alamar Blue, secondary assay (AID 2327); type: functional;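 note: NIH-3T3 mouse fibroblasts cultured with fluconazole at 8 µg/mL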
[2] = fluconazole-exposed Candida albicans growth modulators – fluorescence, retest, confirmation (AID 2467); type: functional, cell-based
[3] = molecular target: Prothrombin (Homo sapiens, UniProt P00734); assay: Thrombin 1536 HTS Dose Response Confirmation. [Related pubchem assays: 1046 (Thrombin 1536 HTS; hits were confirmed in this assay)]; type: functional
[4] = molecular target: Cytochrome P450 2C19 (Homo sapiens, UniProt P33261); assay: Cytochrome panel assay with activity outcomes. Panel member name: p450-cyp2c19 Compounds with AC50 equal or less than 10 uM are considered active; type: functional; conditions: read-out: AC50
Sequence of Cytochrome P450 2C19 (P33261 whole entry): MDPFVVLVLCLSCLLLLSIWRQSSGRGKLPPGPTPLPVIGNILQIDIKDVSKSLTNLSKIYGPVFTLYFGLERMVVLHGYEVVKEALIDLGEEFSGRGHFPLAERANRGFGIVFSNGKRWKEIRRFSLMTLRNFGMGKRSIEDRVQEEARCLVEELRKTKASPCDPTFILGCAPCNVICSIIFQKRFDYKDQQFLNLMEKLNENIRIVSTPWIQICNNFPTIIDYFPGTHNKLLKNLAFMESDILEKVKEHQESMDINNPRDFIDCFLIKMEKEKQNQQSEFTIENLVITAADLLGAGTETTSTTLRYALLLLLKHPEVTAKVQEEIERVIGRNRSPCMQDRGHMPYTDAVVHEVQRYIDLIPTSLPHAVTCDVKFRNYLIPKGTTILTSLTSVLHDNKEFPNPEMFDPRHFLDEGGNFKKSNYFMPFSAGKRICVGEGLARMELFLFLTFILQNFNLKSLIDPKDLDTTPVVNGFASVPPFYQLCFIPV

[5] = molecular target: T1, Cytochrome P450 1A2 (Homo sapiens, UniProt P05177);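 note: PubChem cytochrome P450 panel assay, CYP1A2 panel member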
T1 sequence (P05177 whole entry): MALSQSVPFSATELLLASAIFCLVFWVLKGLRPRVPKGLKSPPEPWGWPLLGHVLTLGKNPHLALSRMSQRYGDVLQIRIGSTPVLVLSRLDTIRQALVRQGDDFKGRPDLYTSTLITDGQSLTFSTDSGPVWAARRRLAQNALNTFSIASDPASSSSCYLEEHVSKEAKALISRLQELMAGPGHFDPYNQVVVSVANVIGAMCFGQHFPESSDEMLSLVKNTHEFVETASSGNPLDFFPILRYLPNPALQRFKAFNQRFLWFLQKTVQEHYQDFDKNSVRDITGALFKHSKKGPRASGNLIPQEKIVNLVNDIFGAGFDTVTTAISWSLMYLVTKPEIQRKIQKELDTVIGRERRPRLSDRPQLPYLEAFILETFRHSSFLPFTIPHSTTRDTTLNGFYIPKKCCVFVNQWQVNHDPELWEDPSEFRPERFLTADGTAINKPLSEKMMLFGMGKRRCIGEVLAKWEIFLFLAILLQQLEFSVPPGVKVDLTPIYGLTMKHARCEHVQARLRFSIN

[6] = molecular target: Cytochrome P450 2C9 (Homo sapiens, UniProt P11712)
Sequence of Cytochrome P450 2C9 (P11712 whole entry): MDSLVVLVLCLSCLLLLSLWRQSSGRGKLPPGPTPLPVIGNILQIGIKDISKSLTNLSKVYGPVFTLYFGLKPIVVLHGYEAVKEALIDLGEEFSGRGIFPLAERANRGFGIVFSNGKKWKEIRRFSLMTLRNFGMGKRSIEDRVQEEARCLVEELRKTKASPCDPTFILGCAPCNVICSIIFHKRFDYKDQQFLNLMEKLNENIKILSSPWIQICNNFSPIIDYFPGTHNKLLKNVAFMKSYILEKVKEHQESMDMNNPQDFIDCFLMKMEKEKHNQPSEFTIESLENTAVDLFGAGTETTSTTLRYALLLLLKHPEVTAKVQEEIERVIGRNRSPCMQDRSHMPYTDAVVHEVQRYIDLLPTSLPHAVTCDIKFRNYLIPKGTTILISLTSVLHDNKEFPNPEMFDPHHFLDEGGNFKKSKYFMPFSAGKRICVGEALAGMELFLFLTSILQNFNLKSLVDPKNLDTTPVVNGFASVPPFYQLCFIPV

[7] = molecular target: Luciferin 4-monooxygenase (Photinus pyralis, UniProt P08659); assay: inhibition of purified Photinus pyralis luciferase – biochemical, luminescence, dose response (AID 1891)
Sequence of Luciferin 4-monooxygenase (P08659 whole entry): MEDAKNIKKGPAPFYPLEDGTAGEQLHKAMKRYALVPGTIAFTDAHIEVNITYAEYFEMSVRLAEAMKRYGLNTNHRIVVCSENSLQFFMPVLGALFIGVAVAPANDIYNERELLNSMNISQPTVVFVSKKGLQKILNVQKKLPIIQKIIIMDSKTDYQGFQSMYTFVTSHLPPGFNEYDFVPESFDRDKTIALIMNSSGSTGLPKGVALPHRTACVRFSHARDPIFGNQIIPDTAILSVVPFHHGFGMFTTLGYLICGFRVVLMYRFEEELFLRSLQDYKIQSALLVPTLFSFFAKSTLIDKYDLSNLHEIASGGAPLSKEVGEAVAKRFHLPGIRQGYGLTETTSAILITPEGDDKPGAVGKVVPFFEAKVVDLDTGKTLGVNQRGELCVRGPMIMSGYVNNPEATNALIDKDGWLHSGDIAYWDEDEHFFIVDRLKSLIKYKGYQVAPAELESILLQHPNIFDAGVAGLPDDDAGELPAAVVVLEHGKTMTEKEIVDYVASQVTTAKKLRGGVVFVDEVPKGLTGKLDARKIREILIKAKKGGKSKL

[8] = Luminescence Cell-Based Dose Confirmation HTS to Identify Inhibitors of Platelet Dense Granule Release. [Related pubchem assays: 1663 (Primary HTS), 1678 (Summary of Project)]; type: functional
[9] = test system: BJ; assay: BJ-TERT fibroblast viability loss – cell-based, RAS-independent, luminescence, dose response (AID 1933); type: functional; conditions: Homo sapiens
[10] = test system: BJ; assay: cells; type: functional, cell-based; conditions: Homo sapiens
[11] = test system: BJ; assay: BJ-TERT-LT-ST fibroblast viability loss – cell-based, RAS-independent, luminescence, dose response (AID 1935); type: functional; conditions: Homo sapiens;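 note: BJ fibroblasts immortalized with TERT plus LT and ST oncogenes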
[12] = DRD fibroblast viability loss – cell-based, non-viral oncogenic, luminescence, dose response (AID 1934); type: functional; conditions: Homo sapiens
[13] = molecular target: Paired box protein Pax-8 (Homo sapiens, UniProt Q06710); assay: PAX8 transcriptional activity inhibition in RMG-I – RMG-I cells, luciferase, cherry-pick, dose response (AID 687027); type: functional, cell-based;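 note: luciferase reporter driven by Pax8 target thyroperoxidase promoter measured by SteadyGlo luminescence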
Sequence of Paired box protein Pax-8 (Q06710 whole entry): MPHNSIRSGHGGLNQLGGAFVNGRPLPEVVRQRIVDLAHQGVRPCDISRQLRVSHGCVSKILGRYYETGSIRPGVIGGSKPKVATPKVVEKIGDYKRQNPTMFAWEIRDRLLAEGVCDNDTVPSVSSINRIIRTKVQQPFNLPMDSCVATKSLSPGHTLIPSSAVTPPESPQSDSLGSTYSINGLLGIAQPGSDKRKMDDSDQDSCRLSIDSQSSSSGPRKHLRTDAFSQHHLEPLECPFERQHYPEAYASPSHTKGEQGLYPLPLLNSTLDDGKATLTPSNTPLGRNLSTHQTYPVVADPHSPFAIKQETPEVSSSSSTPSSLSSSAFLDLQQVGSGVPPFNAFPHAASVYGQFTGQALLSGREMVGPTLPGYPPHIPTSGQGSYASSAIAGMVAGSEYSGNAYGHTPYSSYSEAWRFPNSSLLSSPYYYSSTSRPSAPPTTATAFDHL

[14] = cells; type: functional, cell-based
[15] = cells; type: functional, cell-based; remark: listed apart in the source
[16] = intracellular Trypanosoma cruzi inhibitors in host cells – cell-based, plate reader, cherry-pick samples, set 3, dose response (AID 651818); type: functional;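 note: compounds incubated with infected cells for about four days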
[17] = molecular target: T2, Leucine aminopeptidase (Plasmodium falciparum 3D7, UniProt Q8IL11); assay: P. falciparum M17LAP inhibitors, primary screen, biochemical, fluorogenic H-Leu-NHMec substrate, 1536-well (AID 1619); type: functional
T2 sequence (Q8IL11 whole entry): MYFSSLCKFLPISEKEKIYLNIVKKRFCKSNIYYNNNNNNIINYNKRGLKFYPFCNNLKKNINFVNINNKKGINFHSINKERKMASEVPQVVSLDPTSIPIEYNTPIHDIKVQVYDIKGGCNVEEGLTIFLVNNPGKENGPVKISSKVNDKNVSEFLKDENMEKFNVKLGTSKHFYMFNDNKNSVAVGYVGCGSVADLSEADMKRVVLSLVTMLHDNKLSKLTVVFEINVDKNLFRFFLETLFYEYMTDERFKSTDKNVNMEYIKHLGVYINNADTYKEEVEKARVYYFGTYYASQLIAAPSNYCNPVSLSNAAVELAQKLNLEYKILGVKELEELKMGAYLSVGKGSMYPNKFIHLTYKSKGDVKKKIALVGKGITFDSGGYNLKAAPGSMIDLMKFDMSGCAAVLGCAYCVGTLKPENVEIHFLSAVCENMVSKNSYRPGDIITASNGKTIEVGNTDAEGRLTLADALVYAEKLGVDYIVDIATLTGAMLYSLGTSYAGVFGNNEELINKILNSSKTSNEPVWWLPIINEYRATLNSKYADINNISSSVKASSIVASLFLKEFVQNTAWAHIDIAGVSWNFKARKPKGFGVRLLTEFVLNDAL

[18] = molecular target: Cytochrome P450 2D6 (Homo sapiens, UniProt P10635);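 note: CYP2D6 member of a cytochrome P450 panel assay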
Sequence of Cytochrome P450 2D6 (P10635 whole entry): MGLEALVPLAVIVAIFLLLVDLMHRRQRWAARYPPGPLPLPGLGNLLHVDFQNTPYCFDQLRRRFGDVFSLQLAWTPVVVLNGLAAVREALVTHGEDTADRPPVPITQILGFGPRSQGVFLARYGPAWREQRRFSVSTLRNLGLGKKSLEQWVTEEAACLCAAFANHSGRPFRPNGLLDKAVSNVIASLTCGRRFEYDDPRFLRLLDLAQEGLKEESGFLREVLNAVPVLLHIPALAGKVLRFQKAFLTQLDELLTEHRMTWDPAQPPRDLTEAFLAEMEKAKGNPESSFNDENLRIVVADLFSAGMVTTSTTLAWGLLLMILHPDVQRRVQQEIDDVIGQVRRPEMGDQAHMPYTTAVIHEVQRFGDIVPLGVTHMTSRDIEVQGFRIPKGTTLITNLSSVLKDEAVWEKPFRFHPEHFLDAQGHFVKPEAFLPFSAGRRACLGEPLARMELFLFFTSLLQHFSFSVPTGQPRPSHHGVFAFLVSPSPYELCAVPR

[19] = molecular target: Cytochrome P450 3A4 (Homo sapiens, UniProt P08684);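 note: CYP3A4 tested as one member of a cytochrome P450 panel screen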
Sequence of Cytochrome P450 3A4 (P08684 whole entry): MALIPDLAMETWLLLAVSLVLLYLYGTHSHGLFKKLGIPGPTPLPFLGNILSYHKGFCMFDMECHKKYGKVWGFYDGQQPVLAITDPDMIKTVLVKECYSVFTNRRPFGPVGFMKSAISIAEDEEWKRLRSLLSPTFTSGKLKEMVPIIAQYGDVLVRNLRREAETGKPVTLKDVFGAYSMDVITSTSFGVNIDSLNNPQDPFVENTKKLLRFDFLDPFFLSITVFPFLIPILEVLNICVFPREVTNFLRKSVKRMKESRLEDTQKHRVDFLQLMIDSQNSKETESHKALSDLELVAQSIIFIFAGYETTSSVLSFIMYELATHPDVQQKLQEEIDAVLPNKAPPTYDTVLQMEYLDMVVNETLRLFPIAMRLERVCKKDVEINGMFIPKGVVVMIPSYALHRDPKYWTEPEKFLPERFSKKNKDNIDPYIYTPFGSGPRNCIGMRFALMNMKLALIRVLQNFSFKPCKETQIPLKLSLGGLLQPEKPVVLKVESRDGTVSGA

[20] = microbe, parasite or virus in culture; type: functional; conditions: Mycobacterium tuberculosis
[21] = viability of uninfected HEp-2 cells – cell-based, HTS, cytotoxicity control for RSV inhibitor project, dose response (AID 2410); type: functional; conditions: human respiratory syncytial virus

O=C(NNC(=S)NC(=O)c1ccccc1[N+](=O)[O-])c1ccc(Cl)cc1Cl
EC50 [1]: > 150 µM (inconclusive) | EC50 [2]: 4.09 µM (active)

CCn1c(O)nnc1Sc1nc(C)nc2scc(-c3cccs3)c12
EC50 [1]: > 160 µM (inactive) | EC50 [2]: 0.163 µM (active)

CSc1nc(-c2ccccc2)nn1C(=O)c1ccccc1
IC50 [3]: 0.896 µM (active) | AC50 [4]: 0.1 µM (inconclusive) | AC50 [5]: 2.51 µM (inconclusive) | AC50 [6]: 10 µM (inconclusive)

CCCOc1ccc(CNC(=O)c2ccc3c(c2)N(CC)CCS3)cc1
EC50 [7]: > 112 µM (not active) | EC50 [8]: > 112 µM (not active)

CC1COC(=O)C(NNc2ccc(Cl)c(Cl)c2)=N1 (configuration not stated)
EC50 [1]: > 160 µM (inactive) | EC50 [2]: 2.17 µM (active)

O=C(CCCN1C(=O)/C(=C/c2cccc(Br)c2)SC1=S)Nc1cccnc1
EC50 [9]: 3.12 µM (active) | EC50 [10]: 25.3 µM (active) | EC50 [11]: 17.2 µM (active) | EC50 [12]: 9.68 µM (active) | AC50 [13]: 8.92 µM (active)

O=C(c1ccc(Cl)cc1)C1CCCN(Cc2ccc(Oc3ncccn3)cc2)C1 (configuration not stated)
EC50 [7]: > 112 µM (not active) | EC50 [8]: > 112 µM (not active)

CC(C)c1nnc(NC(=O)c2cnccn2)s1
IC50 [3]: > 50 µM (not active)

Cc1ccc(C)c(OCC(=O)O/N=C(\N)c2cccc([N+](=O)[O-])c2)c1
EC50 [14]: > 350 µM (not active) | EC50 [15]: > 350 µM (not active)

C[C@@H]1CN([C@H](C)CO)C(=O)Cc2cc(NC(=O)Nc3ccc(F)cc3)ccc2O[C@H]1CN(C)Cc1ccc(Cl)c(Cl)c1
AC50 [16]: 4.44 µM (active) | AC50 [13]: 16.2 µM (active)

COc1ccc(CC(=O)n2nc(-c3ccccc3)nc2NCc2ccco2)cc1
IC50 [3]: 8.75 µM (active)

COc1ccc(NC(=O)CSc2[nH]c(=O)cc(C)c2C#N)cc1OC
IC50 [17]: 16.2 µM (active)

Nc1nnnn1/N=C/c1cccc(Oc2ccccc2)c1
EC50 [1]: > 150 µM (inactive) | EC50 [2]: > 38 µM (not active)

Cc1ccc(C(=O)n2ncn(C)c2=S)cc1
IC50 [3]: 1.02 µM (active)

O=C(O)C1CCCCC1C(=O)Nc1ccc(Cl)cc1Cl (configuration not stated)
IC50 [17]: 14.3 µM (active)

O=C(CN1C(=O)c2ccccc2S1(=O)=O)Nc1ccccc1
IC50 [17]: 24.6 µM (active) | AC50 [18]: 17.8 µM (inconclusive) | AC50 [6]: 12.6 µM (inconclusive)

CC(C)=CCSc1nnc([C@@H](N)Cc2c[nH]c3ccccc23)o1
EC50 [14]: > 350 µM (not active) | EC50 [15]: > 350 µM (not active)

Cc1ccc(S(=O)(=O)N2CC(C)N(C(=O)N3CCOCC3)C2C)cc1 (configuration not stated)
EC50 [14]: > 350 µM (not active) | EC50 [15]: > 350 µM (not active)

CCOC(=O)CSc1n[nH]c(NC(=O)c2cccc(C)c2)n1
IC50 [3]: 0.586 µM (active) | AC50 [19]: 5.62 µM (inconclusive) | AC50 [6]: 25.1 µM (inconclusive)

Cc1nn(-c2ccccc2)c(Cl)c1/C=N/NC(=O)c1[nH]ncc1Br
EC50 [7]: 0.374 µM (active) | EC50 [8]: 3.52 µM (active)

CCOC(=O)C1CCN(/C=N/c2cc(C)on2)CC1
EC50 [7]: > 112 µM (not active) | EC50 [8]: > 112 µM (not active)

Cc1ccnc(NS(=O)(=O)c2cc([N+](=O)[O-])ccc2C)c1
EC50 [14]: > 350 µM (not active) | EC50 [15]: > 350 µM (not active)

Cc1ccc(C(=O)CSc2ccc(-c3ccncc3)nn2)cc1
EC50 [14]: > 350 µM (not active) | EC50 [15]: > 350 µM (not active)

COc1ccc(S(=O)(=O)N(C)CC(=O)Nc2ccc3c(c2)OCO3)cc1OC
EC50 [7]: > 112 µM (not active) | EC50 [8]: > 112 µM (not active)

CC[C@@H]1C=CC=CC[C@H](C)[C@@H](O)[C@@H](C)C(=O)[C@H](C)[C@@H](O)[C@H](C)C(=O)[C@H](C)[C@@H](O)[C@H](C)C=CC(=O)O[C@H]2[C@@H](C)[C@@H](CC1)O[C@@]1(CC[C@@H](C)[C@@H](C[C@H](C)O)O1)[C@@H]2C [OLIGOMYCIN C]
EC50 [1]: 15.6 µM (active) | EC50 [2]: 0.427 µM (active)

Cc1cc(NC(=O)CCl)no1
EC50 [9]: 18 µM (active) | EC50 [10]: > 150 µM (not active) | CC50 [20]: 19.6 µM (active) | EC50 [11]: > 75 µM (not active) | EC50 [12]: 21.1 µM (active)

C#CCNc1cc(C)nc2ncnn12
IC50 [3]: > 50 µM (not active)

C[C@H]1CN([C@@H](C)CO)C(=O)c2cccc(NS(=O)(=O)c3ccc(F)cc3)c2O[C@H]1CN(C)Cc1ccc(C(=O)Nc2ccccc2N)cc1
AC50 [16]: 3.43 µM (active)

COc1ccc(CNc2nc(-c3cccnc3)nn2C(=O)C(C)C)cc1
IC50 [3]: 0.167 µM (active)

Cc1cc(S(=O)(=O)N2CCCCC2)ccc1OCC(=O)Nc1ccccc1
EC50 [7]: > 112 µM (not active) | EC50 [8]: 19.7 µM (active)

Nc1n[nH]c(N)c1N=Nc1cccc(F)c1
IC50 [17]: 5.51 µM (active)

Cc1ccc(NC(=O)CN2C(=O)N/C(=C/c3ccco3)C2=O)cc1
IC50 [17]: 37.8 µM (active)

Cc1cccc(NC(=O)CN2NS(=O)(=O)c3ccccc3C2=O)c1
IC50 [17]: 7.74 µM (active)

CCn1cc(C(=O)NCC(OC)OC)c(=O)c2cc(S(=O)(=O)N3CCC(C)CC3)ccc21
CC50 [21]: 11.1 µM (active) | EC50 [14]: > 350 µM (not active) | EC50 [15]: > 350 µM (not active)

O=C(CCN1C(=O)/C(=C/c2cccc(Br)c2)SC1=S)Nc1cccnc1
EC50 [9]: 7.86 µM (inconclusive) | EC50 [10]: > 150 µM (not active) | EC50 [11]: > 150 µM (not active) | EC50 [12]: 18.7 µM (active)

C[C@@H](CO)NC(=O)c1ccc2c3n(nc2c1)-c1ccccc1CO3
EC50 [7]: 16.4 µM (active) | EC50 [8]: 6.93 µM (active)

C[C@@H]1CN([C@@H](C)CO)C(=O)Cc2cc(NC(=O)Nc3ccc4c(c3)OCO4)ccc2O[C@@H]1CN(C)Cc1ccc(-c2ccccc2)cc1
AC50 [16]: 4.26 µM (active)

CC(C)c1ccc(N(CC(=O)N/N=C/c2ccc(OC3CSC3)cc2)S(=O)(=O)c2ccccc2)cc1
IC50 [3]: > 50 µM (not active)

CCN(CC)S(=O)(=O)c1cccc(NC(=O)/C=C/c2cccc([N+](=O)[O-])c2)c1
IC50 [3]: > 50 µM (not active)
